Earlier results in patent US20240325474A1 (priority 2023, published 2024).
In brackets after ≈: the same amount, converted by molar mass.

What was measured:
[1] = system: SARS-COV-2; details: Calu-3 cells
[2] = system: Calu-3 lung epithelia cell lines

C=C1CC[C@@H]2[C@](C)(CO)[C@H](O)CC[C@@]2(C)[C@@H]1C/C=C1/C(=O)OC[C@H]1O [andrographolide]
IC50 [1]: 34 nM
CC50 [2]: 58.03 µg/mL (≈ 166 µM)
